Laboratory results reported in ChEMBL document CHEMBL3046846, “Synthesis of N-Alkyl-2, 3-dimethyl-5-[N-(5-halo-2-methylphenyl)carbamoyl]-6-pyrazinecarboxamides and Their Herbicidal Activity” (J Pestic Sci, 1997).

Tested on: Veronica persica
Test: Herbicidal activity against Veronica persica at 500 g/ha after 2 weeks
Type: functional
Conditions: not given

Compound	Activity [%]
CC[C@H](C)NC(=O)c1nc(C)c(C)nc1C(=O)Nc1cc(F)ccc1C	70
CC[C@H](C)NC(=O)c1nc(C)c(C)nc1C(=O)Nc1cc(Cl)ccc1C	95
Cc1ccc(Cl)cc1NC(=O)c1nc(C)c(C)nc1C(=O)NC(C)(C)C	70
CCNC(=O)c1nc(C)c(C)nc1C(=O)Nc1cc(Cl)ccc1C	70

Tested on: Galium spurium
Test: Herbicidal activity against Galium spurium var. echinospermon (Wally.) Hayek at 500 g/ha after 2 weeks
Type: functional
Conditions: not given

Compound	Activity [%]
CC[C@H](C)NC(=O)c1nc(C)c(C)nc1C(=O)Nc1cc(F)ccc1C	<10
CC[C@H](C)NC(=O)c1nc(C)c(C)nc1C(=O)Nc1cc(Cl)ccc1C	<10
Cc1ccc(Cl)cc1NC(=O)c1nc(C)c(C)nc1C(=O)NC(C)(C)C	<10
CCNC(=O)c1nc(C)c(C)nc1C(=O)Nc1cc(Cl)ccc1C	<10

Tested on: Xanthium strumarium
Test: Herbicidal activity against Xanthium strumarium (cocklebur) 500 g/ha after 2 weeks
Type: functional
Conditions: not given

Compound	Activity [%]
CC[C@H](C)NC(=O)c1nc(C)c(C)nc1C(=O)Nc1cc(F)ccc1C	<10
CC[C@H](C)NC(=O)c1nc(C)c(C)nc1C(=O)Nc1cc(Cl)ccc1C	<10
Cc1ccc(Cl)cc1NC(=O)c1nc(C)c(C)nc1C(=O)NC(C)(C)C	<10
CCNC(=O)c1nc(C)c(C)nc1C(=O)Nc1cc(Cl)ccc1C	10

Tested on: Abutilon theophrasti
Test: Herbicidal activity against Abutilon theophrasti (velvetleaf) at 500 g/ha after 2 weeks
Type: functional
Conditions: not given

Compound	Activity [%]
CC[C@H](C)NC(=O)c1nc(C)c(C)nc1C(=O)Nc1cc(F)ccc1C	<10
CC[C@H](C)NC(=O)c1nc(C)c(C)nc1C(=O)Nc1cc(Cl)ccc1C	<10
Cc1ccc(Cl)cc1NC(=O)c1nc(C)c(C)nc1C(=O)NC(C)(C)C	<10
CCNC(=O)c1nc(C)c(C)nc1C(=O)Nc1cc(Cl)ccc1C	<10

Tested on: Avena fatua
Test: Herbicidal activity against Avena fatua at 500 g/ha after 2 weeks
Type: functional
Conditions: not given

Compound	Activity [%]
CC[C@H](C)NC(=O)c1nc(C)c(C)nc1C(=O)Nc1cc(F)ccc1C	<10
CC[C@H](C)NC(=O)c1nc(C)c(C)nc1C(=O)Nc1cc(Cl)ccc1C	<10
Cc1ccc(Cl)cc1NC(=O)c1nc(C)c(C)nc1C(=O)NC(C)(C)C	<10
CCNC(=O)c1nc(C)c(C)nc1C(=O)Nc1cc(Cl)ccc1C	<10

Tested on: Echinochloa crus-galli
Test: Herbicidal activity against Echinochloa crus-galli (barnyard grass) at 500 g/ha after 2 weeks
Type: functional
Conditions: not given

Compound	Activity [%]
CC[C@H](C)NC(=O)c1nc(C)c(C)nc1C(=O)Nc1cc(F)ccc1C	<10
CC[C@H](C)NC(=O)c1nc(C)c(C)nc1C(=O)Nc1cc(Cl)ccc1C	<10
Cc1ccc(Cl)cc1NC(=O)c1nc(C)c(C)nc1C(=O)NC(C)(C)C	<10
CCNC(=O)c1nc(C)c(C)nc1C(=O)Nc1cc(Cl)ccc1C	<10

Tested on: Glycine max
Test: Herbicidal activity against Glycine max (soybean) at 500 g/ha after 2 weeks
Type: organism-based
Conditions: in vivo, 336 h

Compound	Activity [%]
CC[C@H](C)NC(=O)c1nc(C)c(C)nc1C(=O)Nc1cc(F)ccc1C	< 10
CC[C@H](C)NC(=O)c1nc(C)c(C)nc1C(=O)Nc1cc(Cl)ccc1C	< 10
Cc1ccc(Cl)cc1NC(=O)c1nc(C)c(C)nc1C(=O)NC(C)(C)C	< 10
CCNC(=O)c1nc(C)c(C)nc1C(=O)Nc1cc(Cl)ccc1C	< 10

Tested on: Triticum aestivum
Test: Herbicidal activity against Triticum aestivum (wheat) at 500 g/ha after 2 weeks
Type: ADME, organism-based
Conditions: in vivo, 336 h

Compound	Activity [%]
CC[C@H](C)NC(=O)c1nc(C)c(C)nc1C(=O)Nc1cc(F)ccc1C	< 10
CC[C@H](C)NC(=O)c1nc(C)c(C)nc1C(=O)Nc1cc(Cl)ccc1C	< 10
Cc1ccc(Cl)cc1NC(=O)c1nc(C)c(C)nc1C(=O)NC(C)(C)C	< 10
CCNC(=O)c1nc(C)c(C)nc1C(=O)Nc1cc(Cl)ccc1C	< 10

Tested on: Veronica persica
Test: Herbicidal activity against Veronica persica at 250 g/ha after 2 weeks
Type: functional
Conditions: not given

Compound	Activity [%]
CC[C@H](C)NC(=O)c1nc(C)c(C)nc1C(=O)Nc1cc(F)ccc1C	70
CC[C@H](C)NC(=O)c1nc(C)c(C)nc1C(=O)Nc1cc(Cl)ccc1C	95
Cc1ccc(Cl)cc1NC(=O)c1nc(C)c(C)nc1C(=O)NC(C)(C)C	10
CCNC(=O)c1nc(C)c(C)nc1C(=O)Nc1cc(Cl)ccc1C	<10

Tested on: Galium spurium
Test: Herbicidal activity against Galium spurium var. echinospermon (Wally.) Hayek at 250 g/ha after 2 weeks
Type: functional
Conditions: not given

Compound	Activity [%]
CC[C@H](C)NC(=O)c1nc(C)c(C)nc1C(=O)Nc1cc(F)ccc1C	<10
CC[C@H](C)NC(=O)c1nc(C)c(C)nc1C(=O)Nc1cc(Cl)ccc1C	<10
Cc1ccc(Cl)cc1NC(=O)c1nc(C)c(C)nc1C(=O)NC(C)(C)C	<10
CCNC(=O)c1nc(C)c(C)nc1C(=O)Nc1cc(Cl)ccc1C	<10

Tested on: Xanthium strumarium
Test: Herbicidal activity against Xanthium strumarium (cocklebur) 250 g/ha after 2 weeks
Type: functional
Conditions: not given

Compound	Activity [%]
CC[C@H](C)NC(=O)c1nc(C)c(C)nc1C(=O)Nc1cc(F)ccc1C	<10
CC[C@H](C)NC(=O)c1nc(C)c(C)nc1C(=O)Nc1cc(Cl)ccc1C	<10
Cc1ccc(Cl)cc1NC(=O)c1nc(C)c(C)nc1C(=O)NC(C)(C)C	<10
CCNC(=O)c1nc(C)c(C)nc1C(=O)Nc1cc(Cl)ccc1C	<10

Tested on: Abutilon theophrasti
Test: Herbicidal activity against Abutilon theophrasti (velvetleaf) at 250 g/ha after 2 weeks
Type: functional
Conditions: not given

Compound	Activity [%]
CC[C@H](C)NC(=O)c1nc(C)c(C)nc1C(=O)Nc1cc(F)ccc1C	<10
CC[C@H](C)NC(=O)c1nc(C)c(C)nc1C(=O)Nc1cc(Cl)ccc1C	<10
Cc1ccc(Cl)cc1NC(=O)c1nc(C)c(C)nc1C(=O)NC(C)(C)C	<10
CCNC(=O)c1nc(C)c(C)nc1C(=O)Nc1cc(Cl)ccc1C	<10

Tested on: Echinochloa crus-galli
Test: Herbicidal activity against Echinochloa crus-galli (barnyard grass) at 250 g/ha after 2 weeks
Type: functional
Conditions: not given

Compound	Activity [%]
CC[C@H](C)NC(=O)c1nc(C)c(C)nc1C(=O)Nc1cc(F)ccc1C	<10
CC[C@H](C)NC(=O)c1nc(C)c(C)nc1C(=O)Nc1cc(Cl)ccc1C	<10
Cc1ccc(Cl)cc1NC(=O)c1nc(C)c(C)nc1C(=O)NC(C)(C)C	<10
CCNC(=O)c1nc(C)c(C)nc1C(=O)Nc1cc(Cl)ccc1C	<10

Tested on: Avena fatua
Test: Herbicidal activity against Avena fatua at 250 g/ha after 2 weeks
Type: functional
Conditions: not given

Compound	Activity [%]
CC[C@H](C)NC(=O)c1nc(C)c(C)nc1C(=O)Nc1cc(F)ccc1C	<10
CC[C@H](C)NC(=O)c1nc(C)c(C)nc1C(=O)Nc1cc(Cl)ccc1C	<10
Cc1ccc(Cl)cc1NC(=O)c1nc(C)c(C)nc1C(=O)NC(C)(C)C	<10
CCNC(=O)c1nc(C)c(C)nc1C(=O)Nc1cc(Cl)ccc1C	<10

Tested on: Glycine max
Test: Herbicidal activity against Glycine max (soybean) at 250 g/ha after 2 weeks
Type: organism-based
Conditions: in vivo, 336 h

Compound	Activity [%]
CC[C@H](C)NC(=O)c1nc(C)c(C)nc1C(=O)Nc1cc(F)ccc1C	< 10
CC[C@H](C)NC(=O)c1nc(C)c(C)nc1C(=O)Nc1cc(Cl)ccc1C	< 10
Cc1ccc(Cl)cc1NC(=O)c1nc(C)c(C)nc1C(=O)NC(C)(C)C	< 10
CCNC(=O)c1nc(C)c(C)nc1C(=O)Nc1cc(Cl)ccc1C	< 10

Tested on: Triticum aestivum
Test: Herbicidal activity against Triticum aestivum (wheat) at 250 g/ha after 2 weeks
Type: organism-based
Conditions: in vivo, 336 h

Compound	Activity [%]
CC[C@H](C)NC(=O)c1nc(C)c(C)nc1C(=O)Nc1cc(F)ccc1C	< 10
CC[C@H](C)NC(=O)c1nc(C)c(C)nc1C(=O)Nc1cc(Cl)ccc1C	< 10
Cc1ccc(Cl)cc1NC(=O)c1nc(C)c(C)nc1C(=O)NC(C)(C)C	< 10
CCNC(=O)c1nc(C)c(C)nc1C(=O)Nc1cc(Cl)ccc1C	< 10

Tested on: Veronica persica
Test: Herbicidal activity against Veronica persica at 5000 g/ha after 2 weeks
Type: functional
Conditions: not given

Compound	Activity [%]
CC[C@H](C)NC(=O)c1nc(C)c(C)nc1C(=O)Nc1cc(F)ccc1C	95
CC[C@H](C)NC(=O)c1nc(C)c(C)nc1C(=O)Nc1cc(Cl)ccc1C	95
Cc1ccc(Cl)cc1NC(=O)c1nc(C)c(C)nc1C(=O)NC(C)(C)C	95
CCNC(=O)c1nc(C)c(C)nc1C(=O)Nc1cc(Cl)ccc1C	95

Tested on: Galium spurium
Test: Herbicidal activity against Galium spurium var. echinospermon (Wally.) Hayek at 5000 g/ha after 2 weeks
Type: functional
Conditions: not given

Compound	Activity [%]
CC[C@H](C)NC(=O)c1nc(C)c(C)nc1C(=O)Nc1cc(F)ccc1C	95
CC[C@H](C)NC(=O)c1nc(C)c(C)nc1C(=O)Nc1cc(Cl)ccc1C	50
Cc1ccc(Cl)cc1NC(=O)c1nc(C)c(C)nc1C(=O)NC(C)(C)C	30
CCNC(=O)c1nc(C)c(C)nc1C(=O)Nc1cc(Cl)ccc1C	30

Tested on: Xanthium strumarium
Test: Herbicidal activity against Xanthium strumarium (cocklebur) 5000 g/ha after 2 weeks
Type: functional
Conditions: not given

Compound	Activity [%]
CC[C@H](C)NC(=O)c1nc(C)c(C)nc1C(=O)Nc1cc(F)ccc1C	95
CC[C@H](C)NC(=O)c1nc(C)c(C)nc1C(=O)Nc1cc(Cl)ccc1C	95
Cc1ccc(Cl)cc1NC(=O)c1nc(C)c(C)nc1C(=O)NC(C)(C)C	95
CCNC(=O)c1nc(C)c(C)nc1C(=O)Nc1cc(Cl)ccc1C	95

Tested on: Abutilon theophrasti
Test: Herbicidal activity against Abutilon theophrasti (velvetleaf) at 5000 g/ha after 2 weeks
Type: functional
Conditions: not given

Compound	Activity [%]
CC[C@H](C)NC(=O)c1nc(C)c(C)nc1C(=O)Nc1cc(F)ccc1C	70
CC[C@H](C)NC(=O)c1nc(C)c(C)nc1C(=O)Nc1cc(Cl)ccc1C	95
Cc1ccc(Cl)cc1NC(=O)c1nc(C)c(C)nc1C(=O)NC(C)(C)C	95
CCNC(=O)c1nc(C)c(C)nc1C(=O)Nc1cc(Cl)ccc1C	30

Tested on: Echinochloa crus-galli
Test: Herbicidal activity against Echinochloa crus-galli (barnyard grass) at 5000 g/ha after 2 weeks
Type: functional
Conditions: not given

Compound	Activity [%]
CC[C@H](C)NC(=O)c1nc(C)c(C)nc1C(=O)Nc1cc(F)ccc1C	70
CC[C@H](C)NC(=O)c1nc(C)c(C)nc1C(=O)Nc1cc(Cl)ccc1C	95
Cc1ccc(Cl)cc1NC(=O)c1nc(C)c(C)nc1C(=O)NC(C)(C)C	70
CCNC(=O)c1nc(C)c(C)nc1C(=O)Nc1cc(Cl)ccc1C	50

Tested on: Avena fatua
Test: Herbicidal activity against Avena fatua at 5000 g/ha after 2 weeks
Type: functional
Conditions: not given

Compound	Activity [%]
CC[C@H](C)NC(=O)c1nc(C)c(C)nc1C(=O)Nc1cc(F)ccc1C	50
CC[C@H](C)NC(=O)c1nc(C)c(C)nc1C(=O)Nc1cc(Cl)ccc1C	30
Cc1ccc(Cl)cc1NC(=O)c1nc(C)c(C)nc1C(=O)NC(C)(C)C	<10
CCNC(=O)c1nc(C)c(C)nc1C(=O)Nc1cc(Cl)ccc1C	<10

Tested on: Glycine max
Test: Herbicidal activity against Glycine max (soybean) at 5000 g/ha after 2 weeks
Type: organism-based
Conditions: in vivo, 336 h

Compound	Activity [%]
CC[C@H](C)NC(=O)c1nc(C)c(C)nc1C(=O)Nc1cc(F)ccc1C	< 10
CC[C@H](C)NC(=O)c1nc(C)c(C)nc1C(=O)Nc1cc(Cl)ccc1C	< 10
Cc1ccc(Cl)cc1NC(=O)c1nc(C)c(C)nc1C(=O)NC(C)(C)C	< 10
CCNC(=O)c1nc(C)c(C)nc1C(=O)Nc1cc(Cl)ccc1C	< 10

Tested on: Triticum aestivum
Test: Herbicidal activity against Triticum aestivum (wheat) at 5000 g/ha after 2 weeks
Type: ADME, organism-based
Conditions: in vivo, 336 h

Compound	Activity [%]
CC[C@H](C)NC(=O)c1nc(C)c(C)nc1C(=O)Nc1cc(F)ccc1C	30
CC[C@H](C)NC(=O)c1nc(C)c(C)nc1C(=O)Nc1cc(Cl)ccc1C	30
Cc1ccc(Cl)cc1NC(=O)c1nc(C)c(C)nc1C(=O)NC(C)(C)C	10
CCNC(=O)c1nc(C)c(C)nc1C(=O)Nc1cc(Cl)ccc1C	10
